{"source": "patent US10154988B2", "about": "“Methods and compositions for treating schizophrenia” (The Johns Hopkins University, priority 2012, dated 2018)", "key": {"MAM-treated rats [1]": {"system": "MAM-treated rats", "conditions": "rat, in vivo; cited from earlier work"}, "MAM-treated rats [2]": {"system": "MAM-treated rats", "conditions": "cited from earlier work"}, "[3]": {"system": "Memory-impaired aged rats", "test": "Radial Arm Maze task, 2-hr delay, acute brivaracetam or seletracetam", "type": "in vivo, rat", "conditions": "0.0625-4 mg/kg i.p. 30-40 min before test; repeated measures ANOVA (brivaracetam p=0.039, seletracetam p=0.009)", "procedure": "(§1) The radial arm maze experiments uses acute administration of seletracetam (0-4 mg/kg), brivaracetam (0-4 mg/kg), or saline vehicle given by intraperitoneal injection (in a volume of 1 ml/kg) 30-40 min prior to test sessions. In the chronic treatment experiment, memory-impaired aged rats are implanted subcutaneously in the intrascapular region with osmotic mini-pumps (ALZET, Durect Corporation, Cupertino, Calif.) with brivaracetam (2 mg/kg/day) or saline vehicle starting two weeks prior to assessment in the water maze.\nA radial arm maze (RAM) task is used to assess effects of acute drug treatment with seletracetam and brivaracetam. This protocol allows within-subject assessment across drugs at different doses. The radial maze consists of eight arms projecting from each side of an octagonal center platform, with a food well located at the distal end of each arm. Plexiglas blocks can be positioned to prevent entry into any arm. Extra-maze cues are provided in the room surrounding the maze and illumination is provided by an overhead light.\nPre-training, as described in detail in Chappell et al. Neuropharmacology 37: 481-487, (1998), consists of habituation, standard win-shift training, and win-shift training with delays interposed between information and memory test phases. […]"}, "aged-impaired (AI) rats": {"system": "aged-impaired (AI) rats", "test": "eight-arm Radial Arm Maze task, one-hour delay (levetiracetam, valproate, combination)", "type": "in vivo, rat", "conditions": "valproate on its own", "procedure": "The effects of levetiracetam on the spatial memory retention of aged-impaired (AI) rats are assessed in a Radial Arm Maze (RAM) behavioral task using vehicle control and five different dosage levels of levetiracetam (1.25 mg/kg/day, 2.5 mg/kg/day, 5 mg/kg/day, 10 mg/kg/day and 20 mg/kg/day). RAM behavioral tasks are preformed on ten AI rats. All six treatment conditions are tested on all ten rats, as described above for the MWM test. The RAM apparatus used consists of eight equidistantly-spaced arms. An elevated maze arm (7 cm width×75 cm length) projects from each facet of an octagonal center platform (30 cm diameter, 51.5 cm height). Clear side walls on the arms are 10 cm high and are angled at 65° to form a trough. A food well (4 cm diameter, 2 cm deep) is located at the distal end of each arm. Froot Loops™ (Kellogg Company) are used as rewards. Blocks constructed of Plexiglas™ (30 cm height×12 cm width) can be positioned to prevent entry to any arm. Numerous extra maze cues surrounding the apparatus are also provided. The AI rats are initially subjected to a pre-training test (Chappell et al. Neuropharmacology 37: 481-487, 1998). The pre-training test consists of a habituation phase (4 days), a training phase on the standard win-shift task (18 days) and another training phase (14 days) in which a brief delay is imposed between presentation of a subset of arms designated by the experimenter (e.g., 5 arms available and 3 arms blocked) and completion of the eight-arm win-shift task (i.e., with all eight arms available). In the habituation phase, rats are familiarized to the maze for an 8-minute session on four consecutive days. In each of these sessions food rewards are scattered on the RAM, initially on the center platform and arms and then progressively confined to the arms. After this habituation phase, a standard training protocol is used, in which a food pellet is located at the end of each arm. Rats receive one trial each day for 18 days. Each daily trial terminates when all eight food pellets have been obtained or when either 16 choices are made or 15 minutes had elapsed. After completion of this training phase, a second training phase is carried out in which the memory demand is increased by imposing a brief delay during the trial. At the beginning of each trial, three arms of the eight-arm maze are blocked. Rats are allowed to obtain food on the five arms to which access is permitted during this initial ‘information phase’ of the trial. Rats are then removed from the maze for 60 seconds, during which time the barriers on the maze are removed, thus allowing access to all eight arms. Rats are then placed back onto the center platform and allowed to obtain the remaining food rewards during this ‘retention test’ phase of the trial. The identity and configuration of the blocked arms varies across trials. The number of “errors” the AI rats make during the retention test phase is tracked. An error occurs in the trial if the rats enter an arm from which food had already been retrieved in the pre-delay component of the trial, or if it re-visits an arm in the post-delay session that has already been visited. After completion of the pre-training test, rats are subjected to trials with more extended delay intervals, i.e., a one-hour delay, between the information phase (presentation with some blocked arms) and the retention test (presentation of all arms). During the delay interval, rats remain off to the side of the maze in the testing room, on carts in their individual home cages. AI rats are pretreated 30-40 minutes before daily trials with a one-time shot of the following six conditions: 1) vehicle control (0.9% saline solution); 2) levetiracetam (1.25 mg/kg/day); 3) levetiracetam (2.5 mg/kg/day); 4) levetiracetam (5 mg/kg/day); 5) levetiracetam (10 mg/kg/day); 6) levetiracetam (20 mg/kg/day); […] Injections are given every other day with intervening washout days. Each AI rat is treated with all six conditions within 23 days of testing. […]"}, "[4]": {"system": "Memory-impaired aged rats", "test": "water maze probe test after chronic brivaracetam (osmotic mini-pumps)", "type": "in vivo, rat", "conditions": "2 mg/kg/day", "procedure": "as §1\nRats are trained and tested in a novel water maze environment to assess the effect of drug treatment. The water maze used here is housed in a different building and is surrounded by curtains with a novel set of patterns relative to the maze used for initial assessment of cognitive status. The training protocol consists of 6 trials per day for 2 days to locate a submerged escape platform. On each trial, a rat is released in the maze from one of four equally spaced starting positions around the perimeter of the pool. The starting position varies from trial to trial. […] The rat is then removed from the platform and placed in a holding cage for another 40 s before the next trial. Approximately 24 hrs after the last training trial, a probe test in the absence of the escape platform is given to assess spatial memory."}}, "data": [{"smiles": "NC1=N[C@H](O)[C@H]2[C@H]3O[C@]4(O)O[C@@H]([C@@H](O)[C@@]2(N1)[C@@H]4O)[C@]3(O)CO", "note": "[tetrodotoxin]", "values": [{"measurement": "augmented amphetamine-induced locomotor behavior", "setting": "MAM-treated rats [1]", "value": "normalized"}, {"measurement": "elevated DA neuron population activity", "setting": "MAM-treated rats [1]", "value": "completely reversed"}]}, {"smiles": "C#Cc1ccc2c(c1)C(c1ccccc1F)=N[C@H](C)c1c(C(=O)OCC)ncn1-2", "note": "[SH-053-2′F—R—CH3]", "values": [{"measurement": "increased locomotor response to amphetamine in MAM-treated rats", "setting": "MAM-treated rats [2]; rat, in vivo", "value": "reduced"}, {"measurement": "cortical-evoked responses of HPC neurons", "setting": "MAM-treated rats [2]; saline-treated and MAM-treated animals", "value": "diminished cortical-evoked responses"}, {"measurement": "number of spontaneously active DA neurons in the VTA of MAM rats", "setting": "MAM-treated rats [2]; systemic or infused into the ventral HPC, to levels of saline-treated rats", "value": "reduces the number of spontaneously active DA neurons"}]}, {"smiles": "CC[C@@H](C(N)=O)N1C[C@H](C=C(F)F)CC1=O", "note": "[seletracetam]", "values": [{"measurement": "number of errors in the retention phase after the 2-hr delay, effect of dose", "setting": "[3]", "value": "significant effect as a function of dose"}]}, {"smiles": "CCCC(CCC)C(=O)O", "note": "[valproate]", "values": [{"measurement": "reducing the number of errors in the radial arm maze", "setting": "aged-impaired (AI) rats; 25 mg/kg subcutaneous", "value": "not at 25 mg/kg or 50 mg/kg"}, {"measurement": "reducing the number of errors in the radial arm maze", "setting": "aged-impaired (AI) rats; 50 mg/kg subcutaneous", "value": "not at 25 mg/kg or 50 mg/kg"}, {"measurement": "reducing the number of errors in the radial arm maze", "setting": "aged-impaired (AI) rats; 100 mg/kg subcutaneous", "value": "effective at 100 mg/kg"}]}, {"smiles": "CCC[C@@H]1CC(=O)N([C@@H](CC)C(N)=O)C1", "note": "[brivaracetam]", "values": [{"measurement": "number of errors in the retention phase after the 2-hr delay, effect of dose", "setting": "[3]", "value": "significant effect as a function of dose"}, {"measurement": "spatial bias for the target quadrant compared to the other quadrants", "setting": "[4]; 14 days, n=3/group, t(2)=10.000, p=0.010", "value": "significant spatial bias"}, {"measurement": "time in the target annulus versus vehicle-treated rats", "setting": "[4]; t(4)=3.109, p=0.036", "value": "significantly more time in the target annulus"}, {"measurement": "time in the target quadrant versus vehicle-treated rats", "setting": "[4]; t(4)=3.881, p=0.018", "value": "significantly more time in the target quadrant"}]}]}
